Patent US20040248766A1, “Selective inhibition of intracellular amyloid-beta neurotoxicity in human neurons” (priority 2001, published 2004)
Values joined by “and” are separate entries in the source; they are usually repeats but may differ in a detail not shown here. Equal values may be shown once. “Also recorded” adds a separate entry of the source.

Assays:
[1] = system: Aβ1-42-mediated neuronal cell death; assay: Inhibition of Aβ1-42-mediated neuronal cell death in Aβ1-42-microinjected neurons, TUNEL; assay type: cell-based, human; conditions: 20 mM, 1 hour pre-incubation, 24 hours
Description: cDNA Clones. Human Bcl-2 cDNA, Bax α cDNA, and APP695 cDNA were cloned into pCep4β (Invitrogen Canada, Burlington, ON, Canada). The p53 wild type and p53R273H dominant negative cDNA may be cloned in the pCMV-NEO vector. These cDNAs were purified through GlassMAXTM (Gibco-BRL, Rockville, Mass.) and diluted at 30 ng/μl in PBS before injection.
Neutralizing Bax antibodies. Monoclonal anti-Bax 6A7 (amino acids 12-24: Pharmingen, San Diego, Calif.) and 2D2 (amino acids 3-16: Trevigen, Gaithersburg, Md.), polyclonal anti-Bax N-20 (Santa Cruz Biotechnology, Santa Cruz, Calif.), monoclonal anti-APP 22C11 (Roche Molecular Biochemicals, Laval, PQ, Canada), mouse IgG or rabbit sera were diluted at 50 μg/ml (for 6A7, 2D2, mouse IgG and 22C11) or 25 μg/ml (for polyclonal anti-Bax and rabbit sera) in PBS before use. A toxicity curve was done to determine this concentration as the highest non-toxic concentration that can be injected in neurons.
(§1) Microinjection. Thin-walled Borosilicate glass capillaries (OD 1.0 mm, ID 0.5 mm) with microfilament (MTW1OOF-4, World Precision Instrument, Sarasota, Fla.) were pulled with a Flaming/Brown Micropipefte Puller (β-87, Sutter, Novato, Calif.) to obtain injection needles with a tip diameter of ˜0.5 μm. Microinjection was performed in the cytosol of each cell using the Eppendorf Microinjector 5246 (Hamburg, Germany) and Burleigh Micromanipulator MIS-5000 (Victor, N.Y.). Human neurons were injected with 25 pl/shot at an injection pressure of 100 hPa, a compensation pressure of 50 hPa, and an injection time of 0.1 s. Human astrocytes, M17, NT2 and La—N-1 cells were injected with 8 pl/shot at an injection pressure of 50 hPa, a compensation pressure of 30 hPa and an injection time of 0.1 s.
(§2) Measurement of neuronal apoptosis. Cells were fixed in freshly prepared 4% paraformaldehyde/4% sucrose for 20 minutes at room temperature and permeabilized in 0.1% Triton X-100, 0.1% sodium citrate on ice for 2 minutes. Terminal deoxynucleotidyl transferase-mediated dUTP nick end labeling (TUNEL) was performed using the In Situ Cell Death Detection Kit I as described by the manufacturer (Roche Molecular Biochemicals). The percentage of cell death was determined as the ratio of the number of DTR-TLUNEL-double-positive cells over the total number of DIR-positive cells.
Treatment with caspase inhibitors, cycloheximide, actinomycin D. Caspase pan inhibitor, Z-Valine-Alanine-Aspartic acid-fluoromethylketone (Z-VAD-fmk) (Biomol, Plymounth Meeting, PA); caspase-6 inhibitor, Z-Valine-Glutamic acid-Isoleucine-Aspartic acid-fmk (Z-VEID-fnk); caspase-3 inhibitor, Z-Aspartic acid-Glutamic acid-Valine-Aspartic acid-fmk (Z-DEVD-fmk); and caspase-8 inhibitor, Z-Isoleucine-Glutamic acid-Threomine-Aspartic acid-fmk (Z-IETD-fmk) (Sigma, Oakville, ON, Canada) were dissolved in 100% dimethylsulphoxide (DMSO, Sigma) at 5 mM and were diluted at 5 μM into culture medium immediately before use. The medium was changed every 48 hours.
Stock solutions of 5 mg/ml cycloheximide and 200 IM actinomycin D were made in sterile distilled water and diluted to 5 μg/ml for cycloheximide and 5 μM for actinomycin D in the culture medium immediately before use.
Dextran Texas Red (DTR) was co-injected with Aβ1-42 to identi the injected cells from the non-injected cells. The experiment was done on 200 microinjected neurons per preparation of neurons and on three independent neuron preparations.

human neurons [2] = assay: Neuronal cell death caused by the agent alone (without Aβ1-42); assay type: cell-based; conditions: 20 mM, DTR-injected neurons, 24 hours
Description: as §2, with “Biochemicals).” for “Biochemicals). The percentage of cell death was determined as the ratio of the number of DTR-TLUNEL-double-positive cells over the total number of DIR-positive cells.”

primary human neurons = assay: Microinjection of Aβ peptides into the cytosol of primary human neurons, cell death by TUNEL; assay type: cell-based; conditions: for number of molecules toxic (as few as / as little as): microinjected neurons
Description: (§3) Cell cultures. Primary cultures of human neurons and astrocytes were prepared as described in LeBlanc, A., J. Neurosci. 15:7837-46 (1995), incorporated herein by reference. Fresh brain tissues were dissociated with 0.25% trypsin (Gibco-BRL) in phosphate buffered saline (PBS) at 37° C. for 15 minutes. The trypsin was inactivated. by adding 10% decomplemented fetal bovine serum (FBS, HyClone, Logan, Utah.) to the mixture. The dissociated tissues were triturated in 0.1 mg/ml DNaseI (Gibco-BRL) to obtain a homogeneous mixture. The mixture was filtered successively through 130 and 70 gm filters and centrifuged at 15,000 g for 10 minutes at 10° C. to pellet the cells. The cell pellet was washed once with PBS and once with minimal essential media (MEM, Gibco-BRL) in Earle's balanced salt solution containing 0.225% sodium bicarbonate, 1 mM sodium pyruvate, 2 mM L-glutamine, 0.1% dextrose, 1×antibiotic Pen-Strep (all from Gibco-BRL) and 5% decomplemented FBS.
The cells were plated on poly-L-lysine-coated ACLARTM (Cat. No.: 33C; thickness: 0.5 mm; Allied Chemical, Minneapolis, Minn.) coverslips at a density of 3×10^6 cells/ml. Neurons and astrocytes were incubated at 37° C. in the MEM media with 5% CO2, and the media were changed every 48 hours. For neuron culture, 1 mM fluorodeoxyuridine (FDU, Gibco-BRL) was applied for the first 3 feedings and after that, used weekly to prevent proliferation of dividing cells. […] Microinjection or treatment was performed 10 days after plating for neurons and astrocytes.
Aβ peptides. Aβ peptides (Bachem, King of Prussia, Pa.) were dissolved in sterile distilled water at 25 μM and incubated at 37° C. for 5 days. The peptides stock solutions were frozen and diluted in 1×PBS immediately before microinjection. […] A 250 μl aliquot was diluted to 0.25 μM and immediately frozen at −20° C. in aliquots of 50 μl. The remaining solution was incubated at 37° C. in Eppendorf tubes with continuous mixing by inversion. After incubation, the samples were removed, vortexed, sonicated twice for 1 minute in a bath type sonicator (ELMA GmbH & Co. KG, Germany) and frozen at −20° C. in […]. Each aliquot was used once to avoid possible effects of freeze and thaw cycles.
as §1
The diluted peptides were injected at the indicated concentrations with 100 μg/ml dextran Texas Red (DTR) (MW: 3000, Molecular Probes, Eugene, Oreg.) as a fluorescent marker to recognize the injected cells.
as §2, with “Biochemicals).” for “Biochemicals). The percentage of cell death was determined as the ratio of the number of DTR-TLUNEL-double-positive cells over the total number of DIR-positive cells.”

human neurons [3] = assay: Exposure of human neurons to extracellular Aβ peptides, TUNEL and propidium iodide; assay type: cell-based; conditions: 10 μM extracellular, 24 hours
Description: To test if this particular batch of peptide might be neurotoxic, neurons were treated with 10 μM of peptides for 24 hours.

primary human astrocytes = assay: Microinjection of Aβ1-42 into primary human astrocytes, TUNEL/Hoechst; assay type: cell-based; conditions: up to 100 nM / 8×10^−19 moles injected, 24 hours
Description: as §3, with “FBS. […]” for “FBS.”
Measurement of neuronal apoptosis. […] The percentage of cell death was determined as the ratio of the number of DTR-TLUNEL-double-positive cells over the total number of DIR-positive cells. […]
Cell death was identified by TUNEL staining and nuclei detected with Hoechst staining. […] The faint green fluorescence detected in these cells is the results of bleed-through from the red DTR fluorescence on the microscope.

[4] = system: human neuroblastoma La-N-1; assay: Microinjection of Aβ1-42 into La-N-1 cells, TUNEL; assay type: cell-based; conditions: La-N-1, up to 8×10^−19 moles injected, 24 hours
Description: (§4) Human neuroblastoma M17 cells were cultured on ACLAR™ coverslips at 1×10^6 cells/ml in OPTI-MEM (Gibco-BRL) containing 5% FBS. Microinjection was performed when the cells reached 70-80% confluence on the coverslips. Human teratocarcinoma NT2 (Stratagene, La Jolla, Calif.) and neuroblastoma La-N-1 cells were cultured on ACLAR™ coverslips at 1×10^6 cells/ml in DMEM (Gibco-BRL) containing 10% FBS. Microinjection was performed when the cells were 50% confluent.
as §1, with “Human astrocytes, M17, NT2 and La—N-1 cells were injected with 8 pl/shot at an injection pressure of 50 hPa, a compensation pressure of 30 hPa and an injection time of 0.1 s.” left out
(§5) Measurement of neuronal apoptosis. […] The percentage of cell death was determined as the ratio of the number of DTR-TLUNEL-double-positive cells over the total number of DIR-positive cells.

human neuroblastoma M17 = assay: Microinjection of Aβ1-42 into M17 cells, TUNEL; assay type: cell-based; conditions: M17, up to 8×10^−19 moles injected, 24 hours
Description: as §4
as §1, with “Human astrocytes, M17, NT2 and La—N-1 cells were injected with 8 pl/shot at an injection pressure of 50 hPa, a compensation pressure of 30 hPa and an injection time of 0.1 s.” left out
as §5

[5] = system: human teratocarcinoma NT2; assay: Microinjection of Aβ1-42 into NT2 cells, TUNEL; assay type: cell-based; conditions: NT2, up to 8×10^−19 moles injected, 24 hours
Description: as §4
as §1, with “Human astrocytes, M17, NT2 and La—N-1 cells were injected with 8 pl/shot at an injection pressure of 50 hPa, a compensation pressure of 30 hPa and an injection time of 0.1 s.” left out
as §5

NIH 3T3 fibroblasts = assay: Microinjection of Aβ1-42 into NIH 3T3 fibroblasts, TUNEL; assay type: cell-based, mice; conditions: 24 hours
[6] = system: baby hamster kidney (BHK) cell lines; assay: Microinjection of Aβ1-42 into BHK cells, TUNEL; assay type: cell-based; conditions: 24 hours
[7] = determined in a medium or extracellularly; cited from earlier work

[Cl-].[Li+] [LiCl2]
protection against intracellular Aβ1-42 toxicity (in words) [1]: efficiently protected | cell death with agent and DTR only (in words) (human neurons [2]): did not undergo cell death

Aβ1-42: 42 amino acid amyloid β peptide (SEQ ID NO: 2), aged 5 days at 37° C.
cell death of microinjected neurons (primary human neurons; 10 nM aged peptide, 48 hours after injection): 78% | amount delivered into the neuron cytosol sufficient to induce rapid neuronal death (primary human neurons; 25 pl/shot of 10 nM): 2.5e-19 mol | apoptosis of microinjected neurons (primary human neurons; 25×10^−21 moles intracellular, within 24 hours after injection): 70% | cell death of microinjected neurons (primary human neurons; 100-fold dilution in the amount injected (25 pl/shot of 10 nM)): 50% | number of molecules giving 50% toxicity (primary human neurons; based on the Avogadro number): 1505.5 molecules/neuron | number of molecules injected giving maximal toxicity (primary human neurons; based on the Avogadro number): 150,055 molecules | toxic concentration of injected peptide in the cytosol (primary human neurons; calculated from injected moles and cytosolic volume 2.5 nL): 1 pM and 1 to 100 pM | number of molecules toxic (as few as / as little as) (primary human neurons): 1500 molecules | number of molecules toxic (as few as / as little as) (primary human neurons; listed as Aβ42): 150.5 molecules | intracellular toxicity to human neurons (in words) (primary human neurons; peptide microinjected into cytosol): rapidly induces cell death | reduction of concentration that still exerts significant toxicity (primary human neurons; relative to 25×10^−21 moles/cell, FIG. 1C): 100 to 1000 fold | toxicity of extracellular peptide (in words) (human neurons [3]): do not undergo cell death; also recorded: Neither extracellular Aβ1-40, Aβ1-42, or Aβ40-1 are toxic | intracellular toxicity (in words) (primary human astrocytes): not observed to be toxic; also recorded: completely resist; also recorded: do not show any sign of condensed chromatin by Hoechst staining, nor positive nuclei TUNEL staining | intracellular toxicity (in words) (primary human astrocytes; listed as Aβ42): remain resistant | intracellular toxicity (in words) [4]: not observed to be toxic; also recorded: completely resist; also recorded: fails to induce cell death | intracellular toxicity (in words) ([4]; listed as Aβ42): remain resistant | intracellular toxicity (in words) (human neuroblastoma M17): not observed to be toxic; also recorded: completely resist; also recorded: fails to induce cell death | intracellular toxicity (in words) (human neuroblastoma M17; listed as Aβ42): remain resistant | intracellular toxicity (in words) [5]: not observed to be toxic; also recorded: completely resist; also recorded: fails to induce cell death | intracellular toxicity (in words) ([5]; listed as Aβ42): remain resistant | intracellular toxicity (in words) (NIH 3T3 fibroblasts): not observed to be toxic; also recorded: fails to induce cell death | intracellular toxicity (in words) [6]: not observed to be toxic; also recorded: fails to induce cell death | toxic concentration known in the art [7]: 10 to 100 µM
